# Measured values published in patent US10493070B2 (priority 2016, dated 2019).
# Tested on: recombinant NL4-3 virus (NLRluc, Renilla luciferase in nef, Gag P373S)
# Experiment: HIV cell culture assay (Renilla luciferase reporter virus in MT-2 cells)
# Type: cell-based
# Details: Renilla, NL43, read-out: 10% FBS EC50, 10% FBS, class symbols A/B/C
# Experimental: MT-2 cells and 293T cells were obtained from the NIH AIDS Research and Reference Reagent Program. MT-2 cells were propagated in RPMI 1640 media supplemented with 10% heat inactivated fetal bovine serum, […]. The 293T cells were propagated in DMEM media supplemented with 10% heat inactivated fetal bovine serum (FBS), 100 units/ml penicillin G and 100 μg/ml streptomycin. The proviral DNA clone of NL4-3 was obtained from the NIH AIDS Research and Reference Reagent Program. A recombinant NL4-3 virus, in which a section of the nef gene from NL4-3 was replaced with the Renilla luciferase gene, was used as a reference virus. In addition, residue Gag P373 was converted to P373S. Briefly, the recombinant virus was prepared by transfection of the altered proviral clone of NL4-3. Transfections were performed in 293T cells using LipofectAMINE PLUS from Invitrogen (Carlsbad, Calif.), according to manufacturer's instruction. The virus was titered in MT-2 cells using luciferase enzyme activity as a marker. Luciferase was quantitated using the Dual Luciferase kit from Promega (Madison, Wis.), with modifications to the manufacturer's protocol. The diluted Passive Lysis solution was pre-mixed with the re-suspended Luciferase Assay Reagent and the re-suspended Stop & Glo Substrate (2:1:1 ratio). Fifty (50) μL of the mixture was added to each aspirated well on assay plates and luciferase activity was measured immediately on a Wallac TriLux (Perkin-Elmer). Antiviral activities of inhibitors toward the recombinant virus were quantified by measuring luciferase activity in cells infected for 4-5 days with NLRluc recombinants in the presence serial dilutions of the inhibitor. Table 16 is the key for the data in Table 17.
row,Compound,EC50 [nM]
1,CC(C)C[C@H](N)C(=O)N1CCC(C(=O)N2CC=C3C(C)(C)C(c4ccc(C(=O)O)cc4)=CC[C@]3(C)C2)(c2ccccc2)CC1 [Example 56],< 500
2,"CC1(C)C(c2ccc(C(=O)O)cc2)=CC[C@]2(C)CN(C(=O)c3cccc(C(=O)N4CC=C5C(C)(C)C(c6ccc(C(=O)O)cc6)=CC[C@]5(C)C4)c3)CC=C12 [Example 58, 4,4′-((8aS,8a′S)-isophthaloylbis(5,5,8a-trimethyl-1,2,3,5,8,8a-hexahydroisoquinoline-2,6-diyl))dibenzoic acid]",< 500
3,CC1(C)C(c2ccc(C(=O)O)cc2)=CC[C@]2(C)CN(C(=O)c3ccccc3C(=O)N3CC=C4C(C)(C)C(c5ccc(C(=O)O)cc5)=CC[C@]4(C)C3)CC=C12 [Example 60],500 to 3000
4,CC1(C)C(c2ccc(C(=O)O)cc2)=CC[C@]2(C)CN(C(=O)c3cccc(C(=O)N4CC=C5C(C)(C)C(c6ccc(C(=O)O)cc6)=CC[C@]5(C)C4)n3)CC=C12 [Example 61],> 3000
5,CC1(C)C(c2ccc(C(=O)O)cc2)=CC[C@]2(C)CN(C(=O)c3ccc(C(=O)N4CC=C5C(C)(C)C(c6ccc(C(=O)O)cc6)=CC[C@]5(C)C4)s3)CC=C12 [Example 62],> 3000
6,CC1(C)C(c2ccc(C(=O)O)cc2)=CC[C@]2(C)CN(C(=O)c3cncc(C(=O)N4CC=C5C(C)(C)C(c6ccc(C(=O)O)cc6)=CC[C@]5(C)C4)c3)CC=C12 [Example 63],> 3000
7,CC1(C)C(c2ccc(C(=O)O)cc2)=CC[C@]2(C)CN(C(=O)c3cccc(C(=O)NCCCN4CCS(=O)(=O)CC4)c3)CC=C12 [Example 66],> 3000
8,CC1(C)C(c2ccc(C(=O)O)cc2)=CC[C@]2(C)CN(C(=O)c3ccccc3C(=O)N3CCS(=O)(=O)CC3)CC=C12 [Example 67],> 3000
9,CC1(C)C(c2ccc(C(=O)O)cc2)=CC[C@]2(C)CN(C(=O)c3cccc(C(=O)N4CCS(=O)(=O)CC4)c3)CC=C12 [Example 68],> 3000
10,CC1(C)C(c2ccc(C(=O)O)cc2)=CC[C@]2(C)CN(C(=O)c3ccc(C(=O)N4CCS(=O)(=O)CC4)cc3)CC=C12 [Example 69],> 3000
11,CC1(C)C(c2ccc(C(=O)O)cc2)=CC[C@]2(C)CN(C(=O)c3cccc(C(=O)NCCCN4CCS(=O)(=O)CC4)n3)CC=C12 [Example 70],> 3000
12,CC1(C)C(c2ccc(C(=O)O)cc2)=CC[C@]2(C)CN(C(=O)c3cncc(C(=O)NCCCN4CCS(=O)(=O)CC4)c3)CC=C12 [Example 71],> 3000
13,CC1(C)C(c2ccc(C(=O)O)cc2)=CC[C@]2(C)CN(C(=O)c3ccc(C(=O)NCCCN4CCS(=O)(=O)CC4)s3)CC=C12 [Example 72],> 3000
14,CC1(C)C(c2ccc(C(=O)O)cc2)=CC[C@]2(C)CN(C(=O)c3cscc3C(=O)NCCCN3CCS(=O)(=O)CC3)CC=C12 [Example 73],> 3000
15,CC1(C)C(c2ccc(C(=O)O)cc2)=CC[C@]2(C)CN(c3ncc(Br)s3)CC=C12 [Example 77],> 3000
16,CC1(C)C(c2ccc(C(=O)O)cc2)=CC[C@]2(C)CN(CCN3CCS(=O)(=O)CC3)CC=C12 [Example 79],> 3000
17,CC1(C)C(c2ccc(C(=O)O)cc2)=CC[C@]2(C)CN(C(=O)c3ccccc3-c3nc4ccccc4n3CCN3CCS(=O)(=O)CC3)CC=C12 [Example 81],500 to 3000
18,"CC(C)(C)OC(=O)N1CCN(c2ccccc2C(=O)N2CCC3C(C)(C)C(c4ccc(C(=O)O)cc4)CC[C@]3(C)C2)CC1 (stereo partly drawn) [Example 83, 4-((8aS)-2-(2-(4-(tert-butoxycarbonyl)piperazin-1-yl)benzoyl)-5,5,8a-trimethyldecahydroisoquinolin-6-yl)benzoic acid]",< 500
19,CC1(C)C2CCN(C(=O)c3ccccc3-c3nc4ccccc4[nH]3)C[C@@]2(C)CC[C@@H]1c1ccc(C(=O)O)cc1 (some centres unmarked) [Example 85],< 500
20,CC(C)C[C@@H](NC(=O)OC(C)(C)C)C(=O)N1CCC(C(=O)N2CC[C@H]3C(C)(C)[C@@H](c4ccc(C(=O)O)cc4)CC[C@]3(C)C2)(c2ccccc2)CC1 [Example 86],< 500
21,CC(C)C[C@@H](NC(=O)OC(C)(C)C)C(=O)N1CCC(C(=O)N2CC=C3C(C)(C)[C@@H](c4ccc(C(=O)O)cc4)CC[C@]3(C)C2)(c2ccccc2)CC1 [Example 88],< 500
22,CC(C)C[C@H](NC(=O)OC(C)(C)C)C(=O)N1CCC(C(=O)N2CC=C3C(C)(C)C(c4ccc(C(=O)O)cc4)=CC[C@]3(C)C2)(c2ccccc2)CC1 [Example 93],< 500
23,Cc1ccc2nc(-c3ccccc3C(=O)N3CC=C4C(C)(C)C(c5ccc(C(=O)O)cc5)=CC[C@]4(C)C3)[nH]c2c1C [Example 98],< 500

# Same assay, conditions: Renilla, NL43, read-out: 10% FBS EC50, 10% FBS, numeric values
row,Compound,EC50 [nM]
1,CC(C)C[C@@H](N)C(=O)N1CCC(C(=O)N2CC=C3C(C)(C)C(c4ccc(C(=O)O)cc4)=CC[C@]3(C)C2)(c2ccccc2)CC1 [Example 57],148
2,CC1(C)C(c2ccc(C(=O)O)cc2)=CC[C@]2(C)CN(C(=O)c3ccc(C(=O)N4CC=C5C(C)(C)C(c6ccc(C(=O)O)cc6)=CC[C@]5(C)C4)cc3)CC=C12 [Example 59],1050
3,CC1(C)C(c2ccc(C(=O)O)cc2)=CC[C@]2(C)CN(C(=O)c3cscc3C(=O)N3CC=C4C(C)(C)C(c5ccc(C(=O)O)cc5)=CC[C@]4(C)C3)CC=C12 [Example 64],1060
4,CC1(C)C(c2ccc(C(=O)O)cc2)=CC[C@]2(C)CN(C(=O)C3C4CCC(C4)C3C(=O)N3CC=C4C(C)(C)C(c5ccc(C(=O)O)cc5)=CC[C@]4(C)C3)CC=C12 (some centres unmarked) [Example 65],2810
5,"CC1(C)C(c2ccc(C(=O)O)cc2)=CC[C@]2(C)CN(c3ncnc(NCCCN4CCS(=O)(=O)CC4)n3)CC=C12 [Example 74, (S)-4-(2-(4-((3-(1,1-dioxidothiomorpholino)propyl)amino)-1,3,5-triazin-2-yl)-5,5,8a-trimethyl-1,2,3,5,8,8a-hexahydroisoquinolin-6-yl)benzoic acid]",340
6,CC1(C)C(c2ccc(C(=O)O)cc2)=CC[C@]2(C)CN(c3ncnc(N4CC=C5C(C)(C)C(c6ccc(C(=O)O)cc6)=CC[C@]5(C)C4)n3)CC=C12 [Example 75],190
7,CC1(C)C(c2ccc(C(=O)O)cc2)=CC[C@]2(C)CN(c3cccc(Br)n3)CC=C12 [Example 76],980
8,CC1(C)C(c2ccc(C(=O)O)cc2)=CC[C@]2(C)CN(c3nc4ccccc4s3)CC=C12 [Example 80],179
9,CC(C)(C)OC(=O)N1CCC(C(=O)N2CCC3C(C)(C)[C@@H](c4ccc(C(=O)O)cc4)CC[C@]3(C)C2)(c2ccccc2)CC1 (some centres unmarked) [Example 84],50
10,CC(C)C[C@H](NC(=O)OC(C)(C)C)C(=O)N1CCC(C(=O)N2CC[C@H]3C(C)(C)[C@@H](c4ccc(C(=O)O)cc4)CC[C@]3(C)C2)(c2ccccc2)CC1 [Example 87],101
11,CC(C)C[C@H](NC(=O)OC(C)(C)C)C(=O)N1CCC(C(=O)N2CC=C3C(C)(C)[C@@H](c4ccc(C(=O)O)cc4)CC[C@]3(C)C2)(c2ccccc2)CC1 [Example 89],67
12,"CC(C)C[C@@H](NC(=O)OC(C)(C)C)C(=O)N1CCC(C(=O)N2CC=C3C(C)(C)C(c4ccc(C(=O)O)cc4)=CC[C@]3(C)C2)(c2ccccc2)CC1 [Example 92, 4-((S)-2-(1-((tert-butoxycarbonyl)-D-leucyl)-4-phenylpiperidine-4-carbonyl)-5,5,8a-trimethyl-1,2,3,5,8,8a-hexahydroisoquinolin-6-yl)benzoic acid]",8
13,CC1(C)C(c2ccc(C(=O)O)cc2)=CC[C@]2(C)CN(C(=O)C3(c4ccccc4)CCN(C(=O)CN4CCS(=O)(=O)CC4)CC3)CC=C12 [Example 94],1370
14,CC1(C)C(c2ccc(C(=O)O)cc2)=CC[C@]2(C)CN(C(=O)C3(c4ccccc4)CCN(C(=O)CCN4CCS(=O)(=O)CC4)CC3)CC=C12 [Example 95],2700
15,"CC1(C)C(c2ccc(C(=O)O)cc2)=CC[C@]2(C)CN(C(=O)C3(c4ccccc4)CCN(CCN4CCS(=O)(=O)CC4)CC3)CC=C12 [Example 96, (S)-4-(2-(1-(2-(1,1-dioxidothiomorpholino)ethyl)-4-phenylpiperidine-4-carbonyl)-5,5,8a-trimethyl-1,2,3,5,8,8a-hexahydroisoquinolin-6-yl)benzoic acid]",1350
16,"Cc1cc2nc(-c3ccccc3C(=O)N3CC=C4C(C)(C)C(c5ccc(C(=O)O)cc5)=CC[C@]4(C)C3)[nH]c2cc1C [Example 97, (S)-4-(2-(2-(5,6-dimethyl-1H-benzo[d]imidazol-2-yl)benzoyl)-5,5,8a-trimethyl-1,2,3,5,8,8a-hexahydroisoquinolin-6-yl)benzoic acid]",51
17,"CC1(C)C(c2ccc(C(=O)O)cc2)=CC[C@]2(C)CN(C(=O)c3ccccc3-c3nc4cc(Br)c(Br)cc4[nH]3)CC=C12 [Example 99, (S)-4-(2-(2-(5,6-dibromo-1H-benzo[d]imidazol-2-yl)benzoyl)-5,5,8a-trimethyl-1,2,3,5,8,8a-hexahydroisoquinolin-6-yl)benzoic acid]",16
18,CN1Cc2c(ccc3nc(-c4ccccc4C(=O)N4CC=C5C(C)(C)C(c6ccc(C(=O)O)cc6)=CC[C@]5(C)C4)[nH]c23)C(c2ccccc2)C1 (some centres unmarked) [Example 100],2810
